Measurements reported in patent EP2433624B1, “Use of buparvaquone for controlling mites parasitising honeybees” (Bimeda International Pharmaceuticals Limited, priority 2010, dated 2012).

Assays:
honeybee larvae [1] = experiment: Toxicity of BPQ A in an aqueous solution when sprayed on honeybee larvae; type: in vivo, Apis mellifera; conditions: summary statement
Method: Example 3 - Toxicity of BPQ A in an aqueous solution when sprayed on honeybee larvae (50mL liquid at a concentration of 50mg/mL - BPQ A)
To spray eggs/larvae with different concentrations of the active ingredient/solvent and examine the effect on development of the young larvae
Eggs/larvae of similar age were attained by placing the queen bee in a frame cage for 36 hrs. Once the frame was laid up, the queen was released and the frame was replaced in the colony for 3 days. The frame cage allowed worker bees to attend the larvae, but prevented the queen from laying in the frame. On day 3/4, when the eggs were changing to larvae, the frame was removed and divided temporarily in 6 x 5cm strips at either side using grease proof paper to facilitate the assessment of product and solvent. Within each strip, three 3.5cm x 2.5cm squares (approximately 30 cells) of grease proof paper was removed and the developing larvae sprayed with BPQ A/solvent at the concentrations described above.

[2] = system: adult honeybees (Apis mellifera); experiment: Toxicity of BPQ A to honeybees when fed in a sugar syrup solution (hoarding cages, 16 days); type: in vivo; conditions: summary statement over all the studies
Method: We have assessed the toxicity of BPQ to adult honeybees (Apis mellifera) using the 50 mg/mL liquid solution, BPQ A, under laboratory conditions
Example 1 - Toxicity of BPQ A to honeybees when fed in a sugar syrup solution (50mL liquid at a concentration of 50mg BPQ/mL)
Hoarding cages consisted of plastic tumblers (600mL) with an opening diameter of 84mm. The tumblers were paired with standard plastic petri-dishes and glass scintillation vials. To allow sufficient ventilation, 33 holes, approximately 3mm in diameter were made in the sides of each tumbler, in addition to two 30mm x 30mm holes fitted with nylon mesh. A circular hole was cut out of the bottom of the cup, which produced an opening large enough to allow a lidded scintillation vial to pass through the hole. Two holes were drilled into the lids of the scintillation vials with a 1mm bit and these vials were filled a 1:1 sugar solution, together with different concentrations of the solvent and product. […]
Three replicates were analysed at each concentration of BPQ A and solvent as outlined below, together with a control group which were only fed sugar and water throughout the experimental period.
Bees were maintained for 16 days at 32°C. Bees were fed additional food as required throughout the experimental period and the general behaviour and survival of the test bees were recorded on a daily basis. […]

honeybee larvae [3] = experiment: Toxicity of BPQ B to honeybee larvae when fed treated syrup; type: in vivo, Apis mellifera; conditions: colony fed treated syrup
Text: To measure the effect of treatment on developing larvae when fed syrup treated with BPQ powder, BPQ B, dissolved in the solvent (N-methyl pyrollidone) and diluted in an aqueous solution.
Apidae boxes were used to raise young queens and when virgin queens started to lay an area 6cm x 3cm were marked and missing cells were noted. The miniature colony was fed treated syrup, which was made by dissolving BPQ B powder in solvent, followed by serial dilutions using a sucrose solution (2 parts sugar: 1 part water). The concentrations administered are given below. Two replicates were carried out for the product, while 1 colony (apidae) was used for each of the solvent concentrations.

Varroa mites [4] = experiment: Efficacy of BPQ B against Varroa mites on honeybees fed treated sucrose solution; type: in vivo; conditions: summary statement
Method: Example 6 - Toxicity of BPQ B to Varroa mites on honeybees when fed treated sucrose solution
To estimate the percentage efficacy of BPQ at different concentrations in sucrose solution
A total of 20 newly emerged Varroa infested bees were placed in hoarding cages. The cages were prepared as described in Section 1.0, except that the air vents were reduced in size using parafilm to prevent the Varroa mites escaping during the test period. The mean(±se) number of mites per 20 bees was estimated prior to commencement of the experiment and an additional 5 mites per cage were added. (mean±se = 10.6±0.33). This was carried out by collecting adult female mite from drone pupae, placing them in an eppendorf tube and then releasing them into the cages.
The treatment solution was made by dissolving BPQ B in solvent, followed by two aqueous serial dilutions producing a concentration of 500µg/mL and 5 µg/mL. From the latter, further serial dilutions were carried with sucrose solution producing the following concentrations: • 0.5µg/mL. (C1-C3) • 0.05µg/mL. (D1-D3) • 0.005µg/mL. (E1-E3) • 0.0005µg/mL. (F1-F3) • 0.00005µg/mL (G1-G3)
Three replicates were established at each concentration plus a control group which were only fed sugar syrup. All cages were placed in the incubator at 32°C and monitored on a daily basis for the number of mites and number of bees knocked down. At the end of five day treatment period, the percentage efficacy of the treatment was estimated by treating bees in all cages with Apistan (Trade Mark of Vita (Europe) Ltd. Apistan contains fluvalinate which is a synthetic pyrethroid. % efficacy = mites knocked from treatment/total mites (treatment+Apistan)*100 [formula]

Varroa mites [5] = experiment: Toxicity to Varroa mites submerged in 3µL liquid in eppendorf tubes; type: in vivo; conditions: for mean number of live mites: day 3, 10 mites per tube
Method: Example 5 - Toxicity of BPQ A to Varroa mites
To assess the toxicity of BPQ to the Varroa mite
Varroa mites only feed on haemolymph of larvae and adult bees and thus would not ingest BPQ in a syrup/water solution. Therefore, it was necessary to identify a volume sufficient to permeate through the cuticle, but not drown the mites. After preliminary investigation it was concluded that 3µL/10 mites/eppendorf tube gave the maximum viability and the latter was used for this trial.
A total of 3µL of BPQ A/solvent was pipetted into each eppendorf tube. Ten mites taken from purple eye drone pupae were submerged in the liquid by tapping the tube gently and a fresh pupa was placed in each tube. 20 pinholes were made in each of the tubes and all samples were placed in the incubator at 30°C. Three replicates were made for each concentration and water was used in the control group. Concentrations of BPQ A and solvent were as described above (Section 1.1). The number of damaged or dead mites was counted on a daily basis. Damaged mites were mites that would not move in a coordinated fashion when touched gently 3 times with a fine brush.

mammals = conditions: dosages many thousands of times higher than those in the invention; cited from earlier work
Solubility in water = type: physicochemical

## CC(C)(C)[C@H]1CC[C@H](CC2=C(O)C(=O)c3ccccc3C2=O)CC1 [BPQ, buparvaquone]
Honeybee larvae [1]
  toxicity to bee larvae: non-toxic
[2]
  harm to adult bees and larvae: harmless
Honeybee larvae [3]
  development of developing larvae: no negative effects
Varroa mites [4]
  effective, application via bee feed route: 82%
Varroa mites [5]; 0.00005µg/mL (g)
  mean number of live mites: 8.66±1.73
Varroa mites [5]; 0.0005µg/mL (f)
  mean number of live mites: 7.66±1.33
Varroa mites [5]; 0.5µg/mL
  mean number of live mites: 3.33±2.4
Varroa mites [5]; summary statement
  toxicity to free living Varroa mites: highly toxic
mammals
  neurotoxic effect: no neurotoxic effect whatsoever
Solubility in water
  solubility in water: completely insoluble
